In this experiment the test system is MIAPaCa-2 cancer initiating cells (ALDHbright cells). As to the kind of experiment: cancer initiating cell in vitro proliferation, ALDEFLUOR flow cytometry. It counts as cell-based. The settings on record: Homo sapiens, read-out: growth inhibition of ALDHbright cells. As to the method: FIG. 19. […] Human pancreatic adenocarcinoma MIAPaCa-2 cells were incubated with mAb W9 (25 μg/ml), for 48 hrs at 37° C. Cells were then harvested and stained with ALDEFLUOR® (TEST). Cells stained with ALDEFLUOR®+DAEB were used as a reference (CONTROL). Human Ig (HIg) were used as a control.
FIG. 26. […] Human pancreatic adenocarcinoma MIAPaCa-2 cells were incubated with mAb W9 (25 μg/ml), cyclopamine (20 μM), and 5-FU (10 μM) for 48 hrs at 37° C. Cells were then stained with ALDEFLUOR with or without the DEAB inhibitor to identify ALDH^bright cells. The anti-HLA class I mAb TP25.99 was used as a control.
FIGS. 28A and 28B. […] Human pancreatic adenocarcinoma MIAPaCa-2 cells (4×10^5/ml) were irradiated at the dose of 20Gy (panel A.) and incubated with mAb W9 (10 μg/ml) and cyclopamine (20 μM) for 72 hrs at 37° C. Cells were then stained with ALDEFLUOR with or without the DEAB inhibitor to identify ALDH^bright cells. Non-irradiated cell were used as a control (panel B.).
(A flow cytometer gives signals particle by particle.)

The values that follow come from patent US9902766B2, “Antibodies to endoplasmin and their use” (University of Pittsburgh—Of The Commonwealth System of …, priority 2010, dated 2018).

Like-named read-outs stand apart in the source and are kept apart here.

Consider `CC1=C2C[C@H]3[C@@H](CC=C4C[C@@H](O)CC[C@@]43C)[C@@H]2CC[C@]12O[C@@H]1C[C@H](C)CN[C@H]1[C@H]2C` [cyclopamine, reference compound], for which the inhibition – broadly, the drop in the measured response relative to a control, in per cent – at 20 µM is, setting by setting: (MIA PaCa-2, 48 h) 50%; (MIA PaCa-2, 72 h) around 50%.
Consider `O=c1[nH]cc(F)c(=O)[nH]1` [5-FU, 5-fluorouracil, reference compound], for which the inhibition at 10 µM (MIA PaCa-2, MIAPaCa-2, mAb W9 25 μg/ml, cyclopamine 20 μM, 5-FU 10 μM, 48 hrs) was 20%.
